Measured values from patent publication US20250325256A1, “LIPID PATCH” (SENSACH AB, priority 2021, published 2025).

What was measured:
[1] = Passive diffusion extraction of Trp and Kyn; assay type: in vitro ADME, pig; details: for Normalized cumulative amount Passive / Cumulative amount Passive / Flux Passive: mean ± SEM
Description: Pig skin, purchased from a local abattoir, was gently cleaned post-sacrifice under cold running water. The skin from abdomen or from the inside of the outer ear was used as in vitro skin model. […] Skin samples were then wrapped individually in Parafilm™ and kept at −20° C. for not more than three months until use. Prior to extraction experiments, skin was cut into 4 cm^2 membranes while still being frozen. Prepared skin membranes were then left at ambient environment for 30 minutes to thaw and obtain room temperature. The integrity of each skin membrane was visually inspected against the light in order to ensure that there were no visible damages (holes). Hairs were then further trimmed with scissors and skin was gently rinsed under cold running water.
In order to determine if reverse iontophoresis can enhance the extraction of Trp compared to their passive diffusion extraction, similar experiments were conducted without the current passage. These passive diffusion experiments were conducted using the same horizontal side-by-side cell setup in parallel to reverse iontophoresis experiments in order to ensure identical conditions. In line with reverse iontophoretic experiment, after the 6-hour sampling, subdermal compartment was emptied and experiment was allowed to continue for another 18 hours. Passive diffusion experiments were repeated four times (n=4).
Prior to HPLC-UV analysis, samples were thawed and vortexed.
Anodal, cathodal and passive fluxes of Trp and Kyn were directly calculated from the amount (mol) extracted at each sampling interval and normalized for the surface area available for extraction (0.785 cm^2) and duration of the interval (in hours). The 6-hour flux values were used for the analysis of transport direction as well for comparison between reverse iontophoretic and passive extraction efficiency. The physiochemical properties of both endogenous substances were estimated. In order to compare results, the enhancement ratio (ER) was determined after 6 hours as […]

[2] = Reverse iontophoretic extraction of Trp and Kyn in side-by-side cells; assay type: in vitro ADME, pig; details: for Flux at anode / Flux at cathode / Cumulative amount at anode / Cumulative amount at cathode: mean ± SEM
Description: Due to the small molecular weight, Trp and Kyn are good candidates for non-invasive monitoring as their passive permeation across the skin membrane is not restricted by the SC's ‘500 Dalton’ rule. Moreover, because of their polar nature (zwitterionic at neutral pH), these compounds are perfect candidates for extraction by reverse iontophoresis. The non-invasive reverse iontophoretic sampling of Trp and Kyn was conducted in vitro using side-by-side cells consisting of two receptor compartments (anodal & cathodal) and a subdermal compartment. Reverse iontophoretic and passive extraction experiments were performed using identical experimental conditions. […] The reverse iontophoretic extraction was performed by application of a constant current 0.3 mA ([…]) for 6 hours in total. Sampling was performed every hour by withdrawing 1 mL of receptor solution and the amount of permeated compound was determined by HPLC-UV. […] The reservoir consists primarily of amino acids and amino acid derivatives originating from proteolysis of filaggrin.
Pig skin, purchased from a local abattoir, was gently cleaned post-sacrifice under cold running water. The skin from abdomen or from the inside of the outer ear was used as in vitro skin model. The hair was trimmed and the skin was dermatomed to a final thickness of 750 μm (Dermatome, Integra LifeSciences, Plainsboro, NJ, USA). Skin samples were then wrapped individually in Parafilm™ and kept at −20° C. for not more than three months until use. Prior to extraction experiments, skin was cut into 4 cm^2 membranes while still being frozen. Prepared skin membranes were then left at ambient environment for 30 minutes to thaw and obtain room temperature. The integrity of each skin membrane was visually inspected against the light in order to ensure that there were no visible damages (holes). Hairs were then further trimmed with scissors and skin was gently rinsed under cold running water.
The Ag/AgCl electrode couple were preferred over platinum because it avoids the sharp decrease in the pH of the solution as their electrochemistry occurs at voltages considerably lower than those required for electrolysis of water. The electrodes were prepared by making a small loop at one of the ends of the silver wire and dipping it into the molten silver chloride in order to coat the loop with AgCl. After cooling, anodal electrodes were prepared by conditioning AgCl coated loops overnight against a platinum wire anode (0.2 mm in diameter, Sigma), at 0.3 mA with 50 mM NaCl as an electrolyte solution resulting in the formation of a layer of silver on the outer surface of the electrodes.
where zp, up, cp are the charge, mobility and concentration of the permeant, ID is the current density (=I/A), F is the Faraday's constant and summation includes all the species in solution that can carry the charge, v is the solvent velocity. Electromigration is a direct cause of current application, which leads to a formation of an electric field across the skin.

[3] = pH 4.0, 24 h amount minus first 6 hours
[4] = pH 7.4, 24 h amount minus first 6 hours
[5] = pH 9.0, 24 h amount minus first 6 hours
[6] = receptor pH 4.0, donor pH 7.4, after 6 h
[7] = receptor pH 7.4, donor pH 7.4, after 6 h
[8] = receptor pH 9.0, donor pH 7.4, after 6 h
[9] = pH 7.4, after 4 hours of iontophoresis
[10] = receptor pH 4.0, after 6 hours of iontophoresis
[11] = receptor pH 7.4, after 6 hours of iontophoresis
[12] = receptor pH 9.0, after 6 hours of iontophoresis
[13] = pH 7.4, after the first hour of current application
[14] = receptor pH 4.0, iontophoretic vs passive cumulative amount after 6 hours
[15] = receptor pH 7.4, iontophoretic vs passive cumulative amount after 6 hours
[16] = receptor pH 9.0, iontophoretic vs passive cumulative amount after 6 hours

Nc1ccccc1C(=O)C[C@H](N)C(=O)O [Kyn, L-kynurenine]
Normalized cumulative amount Passive [1, 3]: 0.27 ± 0.27 nmol/cm^2
Normalized cumulative amount Passive [1, 4]: 2.59 ± 1.50 nmol/cm^2
Normalized cumulative amount Passive [1, 5]: 3.81 ± 0.93 nmol/cm^2
Cumulative amount Passive [1, 6]: <LOQ
Cumulative amount Passive [1, 7]: <LOQ
Cumulative amount Passive [1, 8]: <LOQ
cumulative amount extracted towards the cathode (QC) [2, 9]: 2.50±0.44 nmol/cm^2
Flux at anode [2, 10]: 0.18 ± 0.09 nmol/(h · cm^2)
Flux at cathode [2, 10]: 0.93 ± 0.23 nmol/(h · cm^2)
Cumulative amount at anode [2, 6]: 0.91 ± 0.44 nmol/cm^2
Cumulative amount at cathode [2, 6]: 3.76 ± 0.89 nmol/cm^2
Flux at anode [2, 11]: 0.11 ± 0.08 nmol/(h · cm^2)
Flux at cathode [2, 11]: 1.88 ± 0.18 nmol/(h · cm^2)
Cumulative amount at anode [2, 7]: 0.25 ± 0.17 nmol/cm^2
Cumulative amount at cathode [2, 7]: 5.97 ± 0.73 nmol/cm^2
Flux at anode [2, 12]: 0.52 ± 0.23 nmol/(h · cm^2)
Flux at cathode [2, 12]: 1.99 ± 0.16 nmol/(h · cm^2)
Cumulative amount at anode [2, 8]: 0.64 ± 0.27 nmol/cm^2
Cumulative amount at cathode [2, 8]: 6.38 ± 0.62 nmol/cm^2

N[C@@H](Cc1c[nH]c2ccccc12)C(=O)O [Trp, L-tryptophan]
Normalized cumulative amount Passive [1, 3]: 0.49 ± 0.49 nmol/cm^2
Ratio (Trp/Kyn) Passive ([1]; pH 4.0, from normalized cumulative amounts): 1.81
Normalized cumulative amount Passive [1, 4]: 2.87 ± 1.66 nmol/cm^2
cumulative amount by passive diffusion (QP) ([1]; pH 7.4, after 5 hours): 0.54±0.12 nmol/cm^2
cumulative amount by passive diffusion (QP) ([1]; pH 7.4, after the first hour): 0.30±0.04 nmol/cm^2
Ratio (Trp/Kyn) Passive ([1]; pH 7.4, from normalized cumulative amounts): 1.27
Normalized cumulative amount Passive [1, 5]: 3.50 ± 0.48 nmol/cm^2
Ratio (Trp/Kyn) Passive ([1]; pH 9.0, from normalized cumulative amounts): 1.22 ± 0.19
Flux Passive ([1]; receptor pH 4.0, after 6 hours): 0.01 ± 0.01 nmol/(h · cm^2)
Cumulative amount Passive [1, 6]: 0.18±0.18 nmol/cm^2
Flux Passive ([1]; receptor pH 7.4, after 6 hours): 0.07 ± 0.03 nmol/(h · cm^2)
Cumulative amount Passive [1, 7]: 0.62±0.13 nmol/cm^2
Flux Passive ([1]; receptor pH 9.0, after 6 hours): 0.10 ± 0.03 nmol/(h · cm^2)
Cumulative amount Passive [1, 8]: 0.72±0.09 nmol/cm^2
cumulative amount extracted towards the cathode (QC) [2, 9]: 3.59±0.43 nmol/cm^2
cumulative amount extracted to the anode (QA) ([2]; pH 7.4, after 5 hours of current application): 1.03±0.08 nmol/cm^2
cumulative amount at cathode, times higher than at anode ([2]; pH 7.4, after 6 hours): ~6
cumulative amount extracted to the anode (QA) [2, 13]: 0.28±0.06 nmol/cm^2
cumulative amount extracted towards the cathode (QC) [2, 13]: 0.49±0.04 nmol/cm^2
Flux at anode [2, 10]: 0.35 ± 0.12 nmol/(h · cm^2)
Flux at cathode [2, 10]: 1.03 ± 0.21 nmol/(h · cm^2)
Cumulative amount at anode [2, 6]: 2.01 ± 0.65 nmol/cm^2
Cumulative amount at cathode [2, 6]: 4.39 ± 0.87 nmol/cm^2
Ratio Trp/Kyn (after 6 h) ([2]; receptor pH 4.0, from cathode fluxes): 1.01
Ratio Trp/Kyn (after 6 h) ([2]; receptor pH 4.0, from cumulative amounts at the cathode): 1.35 ± 0.24
ER Anode [2, 14]: 11
ER Cathode [2, 14]: 24
Flux at anode [2, 11]: 0.24 ± 0.07 nmol/(h · cm^2)
Flux at cathode [2, 11]: 2.02 ± 0.19 nmol/(h · cm^2)
Cumulative amount at anode [2, 7]: 1.27±0.13 nmol/cm^2
Cumulative amount at cathode [2, 7]: 7.36±0.75 nmol/cm^2
Ratio Trp/Kyn (after 6 h) ([2]; receptor pH 7.4, from cathode fluxes): 1.07
Ratio Trp/Kyn (after 6 h) ([2]; receptor pH 7.4, from cumulative amounts at the cathode): 1.25 ± 0.03
ER Anode [2, 15]: 2
ER Cathode [2, 15]: ~12
Flux at anode [2, 12]: 0.69 ± 0.23 nmol/(h · cm^2)
Flux at cathode [2, 12]: 2.32 ± 0.15 nmol/(h · cm^2)
Cumulative amount at anode [2, 8]: 1.62 ± 0.26 nmol/cm^2
Cumulative amount at cathode [2, 8]: 8.15 ± 0.59 nmol/cm^2
Ratio Trp/Kyn (after 6 h) ([2]; receptor pH 9.0, from cathode fluxes): 1.17
Ratio Trp/Kyn (after 6 h) ([2]; receptor pH 9.0, from cumulative amounts at the cathode): 1.29 ± 0.03
ER Anode [2, 16]: 2
ER Cathode [2, 16]: 11
